Among the data in the supplement of paper PMC10307832 are relative viability values, retold here.

Experiment in all cases: relative viability (nuclei count vs DMSO), 5 days (fraction); higher = more cells survive
Compound in the assay “Wnt-C59 + Alpelisib”: CC1=NC=CC(=C1)C2=CC=C(C=C2)CC(=O)NC3=CC=C(C=C3)C4=CN=CC=C4 [Wnt-C59] + Cc1nc(NC(=O)N2CCC[C@H]2C(N)=O)sc1-c1ccnc(C(C)(C)C(F)(F)F)c1 [Alpelisib] (partner 2 µM)
In short, it runs like this:
(§1)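 A single step with final 0.05% Triton X-100, 1% formaldehyde and 1 ug/ml Hoechst fixed the cells and stained nuclei 5 days after treatment. Lung cancer cell lines in 1536-well plates had been treated by pin tool the day after seeding with one drug alone or a fixed anchor-drug dose plus five library-drug doses (not always all listed) in √10 steps, and nuclei were counted on 4× images. Relative viability is the ratio of nuclei in treated wells to nuclei in vehicle wells, taken as the median of duplicate plates.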

Compound in the assay “Lapatinib + Navitoclax”: CS(=O)(=O)CCNCc1ccc(-c2ccc3ncnc(Nc4ccc(OCc5cccc(F)c5)c(Cl)c4)c3c2)o1 [Lapatinib] + CC1(C)CCC(c2ccc(Cl)cc2)=C(CN2CCN(c3ccc(C(=O)NS(=O)(=O)c4ccc(N[C@H](CCN5CCOCC5)CSc5ccccc5)c(S(=O)(=O)C(F)(F)F)c4)cc3)CC2)C1 [Navitoclax] (partner 0.5 µM)
In short, it runs like this: as §1

Compound in the assay “Lapatinib + OSI-027”: CS(=O)(=O)CCNCc1ccc(-c2ccc3ncnc(Nc4ccc(OCc5cccc(F)c5)c(Cl)c4)c3c2)o1 [Lapatinib] + COc1cccc2cc(-c3nc([C@H]4CC[C@H](C(=O)O)CC4)n4ncnc(N)c34)[nH]c12 [OSI-027] (partner 0.5 µM)
In short, it runs like this: as §1

Compound in the assay “Lapatinib + Alpelisib”: CS(=O)(=O)CCNCc1ccc(-c2ccc3ncnc(Nc4ccc(OCc5cccc(F)c5)c(Cl)c4)c3c2)o1 [Lapatinib] + Cc1nc(NC(=O)N2CCC[C@H]2C(N)=O)sc1-c1ccnc(C(C)(C)C(F)(F)F)c1 [Alpelisib] (partner 2 µM)
In short, it runs like this: as §1

As for NCI-H1395, the relative viability with Wnt-C59 + Alpelisib (first compound 0.001 µM) stood at 0.993; in the assay with Wnt-C59 + Alpelisib (first compound 0.01 µM), 1.13; with Wnt-C59 + Alpelisib (first compound 0.03162 µM), 1.08; with Wnt-C59 + Alpelisib (first compound 0.1 µM), 1.07; with Lapatinib + Navitoclax (first compound 0.06325 µM), 1.05; in the assay with Lapatinib + Navitoclax (first compound 0.2 µM) it was 1.14. For the same cell line, the relative viability with Lapatinib + Navitoclax (first compound 0.6325 µM) amounted to 1.62; in the assay with Lapatinib + Navitoclax (first compound 2 µM), 1.14; in the assay with Lapatinib + OSI-027 (first compound 0.02 µM), 0.535; with Lapatinib + OSI-027 (first compound 0.06325 µM), 0.597; with Lapatinib + OSI-027 (first compound 0.2 µM), 0.612; with Lapatinib + OSI-027 (first compound 0.6325 µM), 0.636. The relative viability with Lapatinib + OSI-027 (first compound 2 µM) turned out to be 0.627; with Lapatinib + Alpelisib (first compound 0.06325 µM), 0.93; in the assay with Lapatinib + Alpelisib (first compound 0.2 µM) it was 1.18; in the assay with Lapatinib + Alpelisib (first compound 0.6325 µM), 0.978; with Lapatinib + Alpelisib (first compound 2 µM), 1.03.
In the case of BEN, the relative viability with Wnt-C59 + Alpelisib (first compound 0.001 µM) came to 1.11; in the assay with Wnt-C59 + Alpelisib (first compound 0.01 µM) it was 0.993; with Wnt-C59 + Alpelisib (first compound 0.03162 µM) it was 1.37; with Wnt-C59 + Alpelisib (first compound 0.1 µM), 0.957; with Lapatinib + Navitoclax (first compound 0.02 µM), 0.0643; with Lapatinib + Navitoclax (first compound 0.06325 µM) it was 0.0706. In addition, the relative viability worked out at 0.061 with Lapatinib + Navitoclax (first compound 0.2 µM); 0.0751 with Lapatinib + Navitoclax (first compound 0.6325 µM); 0.0557 in the assay with Lapatinib + Navitoclax (first compound 2 µM); 0.279 with Lapatinib + OSI-027 (first compound 0.06325 µM); 0.298 with Lapatinib + OSI-027 (first compound 0.2 µM); 0.288 in the assay with Lapatinib + OSI-027 (first compound 0.6325 µM). Besides, the relative viability with Lapatinib + OSI-027 (first compound 2 µM) amounted to 0.25; with Lapatinib + Alpelisib (first compound 0.02 µM), 0.961; with Lapatinib + Alpelisib (first compound 0.06325 µM), 0.904; with Lapatinib + Alpelisib (first compound 0.2 µM), 1.19; in the assay with Lapatinib + Alpelisib (first compound 0.6325 µM), 0.909; with Lapatinib + Alpelisib (first compound 2 µM) it was 0.853.
As for NCI-H1734, the relative viability with Wnt-C59 + Alpelisib (first compound 0.001 µM) amounted to 0.807; with Wnt-C59 + Alpelisib (first compound 0.01 µM) it was 0.68; with Wnt-C59 + Alpelisib (first compound 0.03162 µM) it was 0.703; with Wnt-C59 + Alpelisib (first compound 0.1 µM) it was 0.726; with Lapatinib + Navitoclax (first compound 0.06325 µM), 0.691; in the assay with Lapatinib + Navitoclax (first compound 0.2 µM) it was 0.802. Moreover, the relative viability in the assay with Lapatinib + Navitoclax (first compound 0.6325 µM) was found to be 0.88; with Lapatinib + Navitoclax (first compound 2 µM), 0.778; in the assay with Lapatinib + OSI-027 (first compound 0.02 µM), 0.615; with Lapatinib + OSI-027 (first compound 0.06325 µM) it was 0.375; with Lapatinib + OSI-027 (first compound 0.2 µM) it was 0.579; in the assay with Lapatinib + OSI-027 (first compound 0.6325 µM), 0.721. Further, the relative viability with Lapatinib + OSI-027 (first compound 2 µM) was 0.507; with Lapatinib + Alpelisib (first compound 0.06325 µM), 0.489; with Lapatinib + Alpelisib (first compound 0.2 µM) it was 0.653; in the assay with Lapatinib + Alpelisib (first compound 0.6325 µM) it was 0.736; with Lapatinib + Alpelisib (first compound 2 µM), 0.657.
In the case of NCI-H596, the relative viability in the assay with Wnt-C59 + Alpelisib (first compound 0.001 µM) stood at 0.528; with Wnt-C59 + Alpelisib (first compound 0.01 µM), 0.396; with Wnt-C59 + Alpelisib (first compound 0.03162 µM), 0.615; in the assay with Wnt-C59 + Alpelisib (first compound 0.1 µM), 0.475; with Lapatinib + Navitoclax (first compound 0.02 µM) it was 0.978; with Lapatinib + Navitoclax (first compound 0.06325 µM), 0.95. Moreover, the relative viability with Lapatinib + Navitoclax (first compound 0.2 µM) came out at 0.922; in the assay with Lapatinib + Navitoclax (first compound 0.6325 µM) it was 0.97; with Lapatinib + Navitoclax (first compound 2 µM) it was 0.706; with Lapatinib + OSI-027 (first compound 0.06325 µM), 0.52; in the assay with Lapatinib + OSI-027 (first compound 0.2 µM) it was 0.566; with Lapatinib + OSI-027 (first compound 0.6325 µM), 0.671. In addition, the relative viability with Lapatinib + OSI-027 (first compound 2 µM) turned out to be 0.416; with Lapatinib + Alpelisib (first compound 0.02 µM) it was 0.481; in the assay with Lapatinib + Alpelisib (first compound 0.06325 µM), 0.48; with Lapatinib + Alpelisib (first compound 0.2 µM) it was 0.425; with Lapatinib + Alpelisib (first compound 0.6325 µM) it was 0.554; in the assay with Lapatinib + Alpelisib (first compound 2 µM), 0.446.
As for SW 1573, the relative viability in the assay with Wnt-C59 + Alpelisib (first compound 0.001 µM) turned out to be 0.701; with Wnt-C59 + Alpelisib (first compound 0.01 µM), 0.758; with Wnt-C59 + Alpelisib (first compound 0.03162 µM), 0.89; with Wnt-C59 + Alpelisib (first compound 0.1 µM), 0.79; with Lapatinib + Navitoclax (first compound 0.02 µM), 0.902; with Lapatinib + Navitoclax (first compound 0.06325 µM), 0.974. Further, the relative viability with Lapatinib + Navitoclax (first compound 0.2 µM) is 1.16; with Lapatinib + Navitoclax (first compound 0.6325 µM), 0.92; in the assay with Lapatinib + Navitoclax (first compound 2 µM) it was 0.882; with Lapatinib + OSI-027 (first compound 0.02 µM), 0.626; in the assay with Lapatinib + OSI-027 (first compound 0.06325 µM), 0.379; in the assay with Lapatinib + OSI-027 (first compound 0.2 µM), 0.612. The relative viability in the assay with Lapatinib + OSI-027 (first compound 0.6325 µM) was 0.735; in the assay with Lapatinib + OSI-027 (first compound 2 µM), 0.635; with Lapatinib + Alpelisib (first compound 0.02 µM), 0.705; in the assay with Lapatinib + Alpelisib (first compound 0.06325 µM) it was 0.648; with Lapatinib + Alpelisib (first compound 0.2 µM), 0.635; in the assay with Lapatinib + Alpelisib (first compound 0.6325 µM), 0.821. The relative viability with Lapatinib + Alpelisib (first compound 2 µM) was 0.843.
For the cell line RERF-LC-KJ, the relative viability was determined as 0.743 with Wnt-C59 + Alpelisib (first compound 0.001 µM); 0.764 with Wnt-C59 + Alpelisib (first compound 0.01 µM); 0.853 with Wnt-C59 + Alpelisib (first compound 0.03162 µM); 0.883 in the assay with Wnt-C59 + Alpelisib (first compound 0.1 µM); 0.933 in the assay with Lapatinib + Navitoclax (first compound 0.02 µM); 0.894 with Lapatinib + Navitoclax (first compound 0.06325 µM). Further, the relative viability in the assay with Lapatinib + Navitoclax (first compound 0.2 µM) was 0.755; in the assay with Lapatinib + Navitoclax (first compound 0.6325 µM), 0.888; with Lapatinib + Navitoclax (first compound 2 µM) it was 0.592; with Lapatinib + OSI-027 (first compound 0.02 µM) it was 0.532; with Lapatinib + OSI-027 (first compound 0.06325 µM), 0.344; in the assay with Lapatinib + OSI-027 (first compound 0.2 µM) it was 0.424. For the same cell line, the relative viability with Lapatinib + OSI-027 (first compound 0.6325 µM) is 0.401; with Lapatinib + OSI-027 (first compound 2 µM), 0.315; with Lapatinib + Alpelisib (first compound 0.02 µM), 0.729; with Lapatinib + Alpelisib (first compound 0.06325 µM) it was 0.463; in the assay with Lapatinib + Alpelisib (first compound 0.2 µM), 0.673; in the assay with Lapatinib + Alpelisib (first compound 0.6325 µM), 0.655. The relative viability with Lapatinib + Alpelisib (first compound 2 µM) amounted to 0.468.
On to NCI-H1651, for which the relative viability was determined as 1.04 with Wnt-C59 + Alpelisib (first compound 0.001 µM); 0.956 with Wnt-C59 + Alpelisib (first compound 0.01 µM); 0.934 in the assay with Wnt-C59 + Alpelisib (first compound 0.03162 µM); 0.815 with Wnt-C59 + Alpelisib (first compound 0.1 µM); 1.05 with Lapatinib + Navitoclax (first compound 0.02 µM); 0.968 in the assay with Lapatinib + Navitoclax (first compound 0.06325 µM). Further, the relative viability with Lapatinib + Navitoclax (first compound 0.2 µM) came out at 0.971; with Lapatinib + Navitoclax (first compound 0.6325 µM), 0.899; with Lapatinib + Navitoclax (first compound 2 µM), 0.906; with Lapatinib + OSI-027 (first compound 0.02 µM), 0.648; with Lapatinib + OSI-027 (first compound 0.06325 µM), 0.454; in the assay with Lapatinib + OSI-027 (first compound 0.2 µM), 0.622. Also, the relative viability in the assay with Lapatinib + OSI-027 (first compound 0.6325 µM) was 0.648; with Lapatinib + OSI-027 (first compound 2 µM), 0.519; in the assay with Lapatinib + Alpelisib (first compound 0.02 µM) it was 0.919; with Lapatinib + Alpelisib (first compound 0.06325 µM), 0.827; in the assay with Lapatinib + Alpelisib (first compound 0.2 µM), 0.897; with Lapatinib + Alpelisib (first compound 0.6325 µM), 0.828. Besides, in the assay with Lapatinib + Alpelisib (first compound 2 µM), the relative viability came to 0.932.
